Target: T1, GluN1/GluN2B-Q110G (UniProt P35439+Q01097, Q110G)
T1 construct: expressed in transfected cells; host or cells: Xenopus laevis oocytes (nuclear cDNA injection)
Test: TEVC on Xenopus oocytes, EVT-101 site mutant
Type: cell-based, rat GluN1, mouse GluN2B
Details: 1 µM trans-OptoNAM-3 (dark)
Text: We finally investigated the location of the OptoNAM-3 binding-site on the receptor. […] The binding site for GluN2B-selective antagonists at the GluN1/GluN2B NTD dimer interface contains two partially overlapping pockets that accommodate GluN2B-selective NAMs of distinct chemical scaffolds:[19] either scaffolds related to ifenprodil or scaffolds related to another GluN2B-selective NAM called EVT-101.[47]
We used cDNA coding for rat GluN1–1a (named GluN1 herein) (GenBank: U08261.1), rat GluN2A (GenBank: D13211.1), mouse GluN2B (GenBank: D10651.2), rat GluA1 flop (GenBank: M36418.2), and rat Myc-GluA2(Q)-flip (GenBank: AF164344.1) cloned into pcDNA3-based expression plasmids. GluK2 (GenBank: Z11548.1) corresponds to the fully RNA-edited version.[80] The GluN2B-ΔNTD construct is from ref[45] and GluN2B–N615K is from ref[81]. Single mutants GluN2B-Q110G and GluN1-L135H were from ref[19]. The GluA2 cDNA contains a Myc tag ([…]) fused between the signal peptide and the N-terminus sequences, and the GluA2 subunit is […] for its Q/R/N site (GluA2(Q)) to allow permeation of homomeric GluA2 receptors.[2] cDNAs coding for rat GluN2C (GenBank: M91563.1) and GluN2D subunits (GenBank: L31611.1) were in prK5 plasmids. […]

T1 sequence (Q01097 27-1482 Q110G, other chains not shown): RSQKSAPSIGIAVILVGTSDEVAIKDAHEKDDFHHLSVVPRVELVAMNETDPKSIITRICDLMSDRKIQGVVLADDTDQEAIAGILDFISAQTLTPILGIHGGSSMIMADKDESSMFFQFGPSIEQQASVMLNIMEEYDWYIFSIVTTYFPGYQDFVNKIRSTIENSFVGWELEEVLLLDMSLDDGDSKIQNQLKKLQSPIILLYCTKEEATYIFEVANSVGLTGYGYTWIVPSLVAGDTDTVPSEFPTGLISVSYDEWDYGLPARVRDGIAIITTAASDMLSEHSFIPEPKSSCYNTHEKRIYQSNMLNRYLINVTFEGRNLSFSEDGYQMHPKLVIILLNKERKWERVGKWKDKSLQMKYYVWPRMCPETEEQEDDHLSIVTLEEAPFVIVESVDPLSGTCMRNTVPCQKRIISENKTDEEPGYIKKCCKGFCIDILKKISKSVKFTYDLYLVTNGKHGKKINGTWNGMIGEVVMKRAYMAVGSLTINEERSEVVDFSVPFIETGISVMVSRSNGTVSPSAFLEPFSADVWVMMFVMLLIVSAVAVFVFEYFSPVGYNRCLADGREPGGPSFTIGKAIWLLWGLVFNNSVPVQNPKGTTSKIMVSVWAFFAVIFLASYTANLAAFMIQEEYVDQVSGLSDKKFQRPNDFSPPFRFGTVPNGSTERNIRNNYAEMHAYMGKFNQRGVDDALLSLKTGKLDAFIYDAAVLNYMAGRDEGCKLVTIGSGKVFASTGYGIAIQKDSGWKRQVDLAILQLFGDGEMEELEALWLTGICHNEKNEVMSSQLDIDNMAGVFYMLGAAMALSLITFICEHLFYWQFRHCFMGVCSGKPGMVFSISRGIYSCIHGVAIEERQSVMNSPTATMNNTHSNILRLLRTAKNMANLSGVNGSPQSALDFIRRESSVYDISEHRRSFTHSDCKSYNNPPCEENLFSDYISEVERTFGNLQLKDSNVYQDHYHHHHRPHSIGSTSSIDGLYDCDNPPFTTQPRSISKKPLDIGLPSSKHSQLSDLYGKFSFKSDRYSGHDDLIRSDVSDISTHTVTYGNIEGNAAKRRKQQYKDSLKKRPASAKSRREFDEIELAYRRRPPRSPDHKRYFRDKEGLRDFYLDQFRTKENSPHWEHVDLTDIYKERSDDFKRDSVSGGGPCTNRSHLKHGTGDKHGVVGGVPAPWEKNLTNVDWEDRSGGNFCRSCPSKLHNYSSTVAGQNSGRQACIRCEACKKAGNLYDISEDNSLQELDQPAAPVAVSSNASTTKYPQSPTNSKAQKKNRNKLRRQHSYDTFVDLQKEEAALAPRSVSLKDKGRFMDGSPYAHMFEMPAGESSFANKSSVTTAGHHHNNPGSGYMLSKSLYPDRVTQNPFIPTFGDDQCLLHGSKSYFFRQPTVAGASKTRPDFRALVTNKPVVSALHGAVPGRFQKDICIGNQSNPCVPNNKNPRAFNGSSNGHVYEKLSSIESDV

Structure (SMILES): c1ccc(/N=N/c2ccc(CCNc3ccncc3)cc2)cc1 [OptoNAM-3, (E)-N-(4-(Phenyldiazenyl)phenethyl)pyridin-4-amine]
- inhibition of GluN1/GluN2B-Q110G: 65.503%

From paper PMC11413854, “Reversible Control of Native GluN2B-Containing NMDA Receptors with Visible Light” (ACS Chemical Neuroscience, 2024)
